Source: patent publication US6737383B1, “Herbicidal oxadiazolidines” (priority 1999, dated 2004)

Tests used:
wild mustard = test: Test E wild mustard; assay type: in vivo, Sinapis arvensis; conditions: Postemergence; for Plant response rating, Wild mustard: 0 to 100 scale
Method in brief: (§1)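 Postemergence: spray at 1–4 leaf stage, soil 60:40 sandy loam:potting mix; solvent + surfactant formulation; greenhouse 21–28 d; visual injury vs untreated controls.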

common poppy = test: Test E common poppy; assay type: in vivo, Papaver rhoeas; conditions: Postemergence
Procedure: (§2) Compounds evaluated in this test were formulated in a non-phytotoxic solvent mixture which included a surfactant and applied to plants that were in the 1- to 4-leaf stage (postemergence application). A mixture of sandy loam soil and greenhouse potting mix in a 60:40 ratio was used for the postemergence test.
(§3) Plantings of these crops and weed species were adjusted to produce plants of appropriate size for the postemergence test. All plant species were grown using normal greenhouse practices. Crop and weed species include annual bluegrass (Poa annua), blackgrass (Alopecurus myosuroides), black nightshade (Solanum nigra), chickweed (Stellaria media), common poppy (Papaver rhoeas), deadnettle (Lamium amplexicaule), downy brome (Bromus tectorum), field violet (Viola arvensis), galium (Galium aparine), green foxtail (Setaria viridis), Italian ryegrass (Lolium multiflorum), jointed goatgrass (Aegilops cylindrica), kochia (Kochia scoparia), lambsquarters (Chenopodium album), littleseed canarygrass (Phalaris minor), rape (Brassica napus), redroot pigweed (Amaranthus retroflexus), Russian thistle (Salsola kali), scentless chamomile (Matricaria inodora), spring barley (Hordeum vulgare), sugar beet (Beta vulgaris), sunflower (Helianthus annuus), ivyleaf speedwell (Veronica hederaefolia), spring wheat (Triticum aestivum), winter wheat (Triticum aestivum), wild buckwheat (Polygonum convolvulus), wild mustard (Sinapis arvensis), wild oat (Avena fatua), windgrass (Apera spica-venti) and winter barley (Hordeum vulgare).
(§4) Treated plants and untreated controls were maintained in a greenhouse for approximately 21 to 28 days, after which all treated plants were compared to untreated controls and visually evaluated. […] A dash response (-) means no test result.

blackgrass = test: Test E blackgrass; assay type: in vivo, Alopecurus myosuroides; conditions: Postemergence; for Plant response rating, Blackgrass: 0 to 100 scale
Procedure: as §2, §3, §4

goosegrass = test: Test D goosegrass; assay type: in vivo, Eleusine indica; conditions: Postemergence, 0 to 100 scale
redroot pigweed = test: Test E redroot pigweed; assay type: in vivo, Amaranthus retroflexus; conditions: Preemergence
Johnson grass = test: Test D Johnson grass; assay type: in vivo, Sorghum halepense; conditions: Postemergence, 0 to 100 scale
spring barley [1] = test: Test E spring barley; assay type: in vivo, Hordeum vulgare; conditions: Preemergence
lambsquarters = test: Test E lambsquarters; assay type: in vivo, Chenopodium album; conditions: Postemergence; for Plant response rating Lambsquarters: 0 to 100 scale
Method in brief: as §1

Russian thistle [2] = test: Test E Russian thistle; assay type: in vivo, Salsola kali; conditions: Preemergence
littleseed canarygrass = test: Test E littleseed canarygrass; assay type: in vivo, Phalaris minor; conditions: Preemergence
field violet = test: Test E field violet; assay type: in vivo, Viola arvensis; conditions: Preemergence
Russian thistle [3] = test: Test E Russian thistle; assay type: in vivo, Salsola kali; conditions: Postemergence; for Plant response rating, Russian thistle: 0 to 100 scale
Procedure: […] A mixture of sandy loam soil and greenhouse potting mix in a 60:40 ratio was used for the postemergence test.
as §3, §4

ivyleaf speedwell = test: Test E postemergence ivyleaf speedwell; assay type: in vivo, Veronica hederaefolia; conditions: for Plant response rating, Veronica hedera: 0 to 100 scale
Procedure: as §2, §3, §4

sugar beet = test: Test E sugar beet; assay type: in vivo, Beta vulgaris; conditions: Preemergence
downy brome = test: Test E downy brome; assay type: in vivo, Bromus tectorum; conditions: Postemergence; for Plant response rating, Downy brome: 0 to 100 scale
Method in brief: as §1

green foxtail = test: Test E green foxtail; assay type: in vivo, Setaria viridis; conditions: Postemergence; for Plant response rating, Green foxtail: 0 to 100 scale
Procedure: as §2, §3, §4

Alexandergrass = test: Test D Alexandergrass; assay type: in vivo, Brachiaria plantaginea; conditions: Postemergence
Spanishneedles = test: Test D Spanishneedles; assay type: in vivo, Bidens bipinnata; conditions: Postemergence, 0 to 100 scale; for Spanishneedles plant response rating: 0 no injury, 100 complete control
deadnettle = test: Test E deadnettle; assay type: in vivo, Lamium amplexicaule; conditions: Postemergence, 0 to 100 scale
Procedure: as §2, §3, §4

spring barley [4] = test: Test E spring barley; assay type: in vivo, Hordeum vulgare; conditions: Postemergence; for Plant response rating, Spring Barley: 0 to 100 scale
Procedure: as §2, §3, §4

Italian ryegrass = test: Test E Italian ryegrass; assay type: in vivo, Lolium multiflorum; conditions: Postemergence; for Plant response rating, I. Ryegrass: 0 to 100 scale
Method in brief: as §1

wild buckwheat = test: Test E wild buckwheat; assay type: in vivo, Polygonum convolvulus; conditions: Preemergence
common ragweed = test: Test D common ragweed; assay type: in vivo, Ambrosia elatior; conditions: Postemergence, 0 to 100 scale
[5] = Rate 500 g/ha, 0 no effect, 100 complete control
[6] = Rate 250 g/ha, 0 to 100 scale where 0 is no effect and 100 is complete control
[7] = Rate 64 g/ha, 0 no injury, 100 complete control
[8] = Rate 125 g/ha, 0 no injury, 100 complete control
[9] = Rate 125 g/ha, 0 to 100 scale (0 no effect, 100 complete control)
[10] = Rate 500 g/ha, 0 to 100 scale where 0 is no effect and 100 is complete control

## C=CCn1c(=O)on(C(=O)N(c2ccc(F)cc2)C(C)C)c1=O [Compound 146]
Wild mustard; Rate 62 g/ha
  Plant response rating, Wild mustard: 60
Wild mustard; Rate 125 g/ha
  Plant response rating, Wild mustard: 50
Wild mustard; [5]
  Plant response rating, Wild mustard: 60
Wild mustard; [6]
  Wild mustard plant response rating: 40
Common poppy; Rate 62 g/ha, 0 to 100 scale
  Plant response rating, Common poppy: 60
Common poppy; Rate 125 g/ha, 0 to 100 scale
  Plant response rating, Comnion poppy: 10
Common poppy; Rate 500 g/ha, 0 to 100 scale, 0 no effect, 100 complete control
  Plant response rating, Common poppy: 10
Common poppy; [6]
  Common poppy plant response rating: 0
blackgrass; Rate 62 g/ha
  Plant response rating, Blackgrass: 70
blackgrass; Rate 125 g/ha
  Plant response rating, Blackgrass: 25
blackgrass; [5]
  Plant response rating, Blackgrass: 40
blackgrass; [6]
  Blackgrass plant response rating: 15
goosegrass; [7]
  Plant response rating, Goosegrass: 0
goosegrass; [8]
  Plant response rating, Goosegrass: 35
goosegrass; Rate 250 g/ha
  Plant response rating, Goosegrass: 30
goosegrass; Rate 500 g/ha
  Plant response rating, Goosegrass: 80
Redroot pigweed; [9]
  Plant response rating, Redroot pigweed: 70
Redroot pigweed; Rate 250 g/ha
  Redroot pigweed plant response rating (0 to 100 scale): 100
Redroot pigweed; [10]
  Plant response rating, Redroot pigweed: 100
Johnson grass; [7]
  Plant response rating Johnsongrass: 20
Johnson grass; [8]
  Plant response rating Johnsongrass: 35
Johnson grass; Rate 250 g/ha
  Plant response rating Johnsongrass: 50
Johnson grass; Rate 500 g/ha
  Plant response rating Johnsongrass: 65
Spring barley [1]; [9]
  Plant response rating, Spring Barley: 20
Spring barley [1]; Rate 250 g/ha
  Spring Barley plant response rating (0 to 100 scale): 10
Spring barley [1]; [10]
  Plant response rating, Spring Barley: 90
lambsquarters; Rate 62 g/ha
  Plant response rating Lambsquarters: 50
lambsquarters; Rate 125 g/ha
  Plant response rating Lambsquarters: 20
lambsquarters; [5]
  Plant response rating Lambsquarters: 50
lambsquarters; [6]
  Lambsquarters plant response rating: 10
Russian thistle [2]; [9]
  Plant response rating, Russian thistle: 0
Russian thistle [2]; Rate 250 g/ha
  Russian thistle plant response rating (0 to 100 scale): 0
Russian thistle [2]; [10]
  Plant response rating, Russian thistle: 10
Littleseed canarygrass; [9]
  Plant response rating, LS canarygrass: 40
Littleseed canarygrass; Rate 250 g/ha
  LS canarygrass plant response rating (0 to 100 scale): 75
Littleseed canarygrass; [10]
  Plant response rating, LS canarygrass: 85
Field violet; [9]
  Plant response rating, Field violet: 10
Field violet; Rate 250 g/ha
  Field violet plant response rating (0 to 100 scale): 30
Field violet; [10]
  Plant response rating, Field violet: 50
Russian thistle [3]; Rate 62 g/ha
  Plant response rating, Russian thistle: 20
Russian thistle [3]; Rate 125 g/ha
  Plant response rating, Russian thistle: 0
Russian thistle [3]; [5]
  Plant response rating, Russian thistle: 0
Russian thistle [3]; [6]
  Russian thistle plant response rating: 0
Ivyleaf speedwell; Rate 125 g/ha
  Plant response rating, Veronica hedera: 60
Ivyleaf speedwell; [6]
  Veronica hedera plant response rating: 40
Ivyleaf speedwell; [5]
  Plant response rating, Veronica hedera: 70
Sugar beet; [9]
  Plant response rating, Sugar beet: 60
Sugar beet; Rate 250 g/ha
  Sugar beet plant response rating (0 to 100 scale): 60
Sugar beet; [10]
  Plant response rating, Sugar beet: 80
Downy brome; Rate 62 g/ha
  Plant response rating, Downy brome: 55
Downy brome; Rate 125 g/ha
  Plant response rating, Downy brome: 10
Downy brome; [5]
  Plant response rating, Downy brome: 5
Downy brome; [6]
  Downy brome plant response rating: 0
Green foxtail; Rate 62 g/ha
  Plant response rating, Green foxtail: 70
Green foxtail; Rate 125 g/ha
  Plant response rating, Green foxtail: 20
Green foxtail; [5]
  Plant response rating, Green foxtail: 80
Green foxtail; [6]
  Green foxtail plant response rating: 70
Alexandergrass; Rate 64 g/ha, 0 to 100 scale, 0 no injury, 100 complete control
  Plant response rating, Alexandergrass: 10
Alexandergrass; Rate 125 g/ha, 0 to 100 scale, 0 no injury, 100 complete control
  Plant response rating, Alexandergrass: 20
Alexandergrass; Rate 250 g/ha, 0 to 100 scale
  Plant response rating, Alexandergrass: 40
Alexandergrass; Rate 500 g/ha, 0 to 100 scale (0 no injury, 100 complete control)
  Plant response rating, Alexandergrass: 65
Alexandergrass; Rate 500 g/ha, 0 to 100 scale
  Plant response rating, Alexandergrass: 65
Spanishneedles; Rate 64 g/ha
  Spanishneedles plant response rating: 10
Spanishneedles; Rate 125 g/ha
  Spanishneedles plant response rating: 10
Spanishneedles; Rate 250 g/ha
  Plant response rating, Spanishneedles: 10
Spanishneedles; Rate 500 g/ha
  Plant response rating, Spanishneedles: 20
deadnettle; Rate 62 g/ha
  Plant response rating, Deadnettle: 50
deadnettle; Rate 125 g/ha
  Plant response rating, Deadnettle: 10
deadnettle; [5]
  Plant response rating, Deadnettle: 20
Spring barley [4]; Rate 62 g/ha
  Plant response rating, Spring Barley: 20
Spring barley [4]; Rate 125 g/ha
  Plant response rating, Spring Barley: 10
Spring barley [4]; [5]
  Plant response rating, Spring Barley: 20
Spring barley [4]; [6]
  Spring Barley plant response rating: 10
Italian ryegrass; Rate 62 g/ha
  Plant response rating, I. Ryegrass: 50
Italian ryegrass; Rate 125 g/ha
  Plant response rating, I. Ryegrass: 10
Italian ryegrass; [5]
  Plant response rating, I. Ryegrass: 50
Italian ryegrass; [6]
  I. Ryegrass plant response rating: 10
Wild buckwheat; [9]
  Plant response rating, Wild buckwheat: 70
Wild buckwheat; Rate 250 g/ha
  Wild buckwheat plant response rating (0 to 100 scale): 85
Wild buckwheat; [10]
  Plant response rating, Wild buckwheat: 100
Common ragweed; [7]
  Plant response rating, C. ragweed: 0
Common ragweed; [8]
  Plant response rating, C. ragweed: 0
Common ragweed; Rate 250 g/ha
  Plant response rating, C. ragweed: 30
Common ragweed; Rate 500 g/ha
  Plant response rating, C. ragweed: 40
